In patent US20190307771A1, “METHODS AND COMPOSITIONS FOR THE TREATMENT OF CANCER AND METABOLIC DISEASES” (THE REGENTS OF THE UNIVERSITY OF CALIFORNIA, priority 2016, published 2019):

Test: FXR KO mice: steatohepatitis and liver cancer
Type: in vivo
Conditions: 10 months old Western diet-fed FXR KO mice; 100 mg/liter in drinking water for three months
Source text: The treatment was started when mice were seven months old. Mice were sacrificed when they were ten months old. n>4.
FXR KO mice have increased insulin resistance accompanied by elevated BAs with increased DCA and develop liver cancer when they are about 15 months old (FIG. 24). […] In addition, FXR KO mice also had reduced Erysipelotrichaceae and Coriobacteriaceae, which have many beneficial health effects (FIG. 25A). Consistently, FXR KO mice had reduced bcoA, which generates butyrate, and increased baiJ and dsrA that generate DCA and hydrogen sulfide, respectively (FIG. 25B). Moreover, 10 months old Western diet-fed FXR KO mice developed severe steatohepatitis with massive hepatic lymphocyte infiltration, which could be eliminated by polymyxin B. This exciting finding clearly indicated the role of Gram-negative bacteria in contributing to hepatic inflammation (FIG. 26). […] Because it takes about 10-15 months for FXR KO mice to develop liver cancer, we will introduce Met/β-catenin plasmids by using sleep beauty transposon system into FXR KO mice via hydrodynamic tail vein injection to induce liver cancer. In wild type mice, these plasmids, which have been provided by Dr. Xin Chen at UCSF, can induce liver cancer within a month post-injection. In the presence of dysbiosis and dysregulated BAs, liver cancer formation is expected to be facilitated and may occur even earlier. […]

With polymyxin B the “Severe steatohepatitis with massive hepatic lymphocyte infiltration” value was “eliminated”.
